Measurements as given in patent US7695908B2, “Methods for predicting methotrexate polyglutamate levels using pharmacogenetics” (Prometheus Laboratories Inc., priority 2004, dated 2010).

Assay: HPLC quantification of red blood cell MTXPG concentrations in rheumatoid arthritis patients on low-dose MTX therapy, with regression on age, dose, route and RFC-1/GGH genotype
Assay type: in vivo, human
Details: for Change of RBC level with increased pharmacogenetic index (PI, from −1 to 1): unadjusted, Kruskall-Wallis, FIG. 3
Protocol: The study was cross-sectional at three investigational sites (The Center of Rheumatology, Albany, N.Y.; Rheumatology Practice, Knoxville, Tenn.; Radiant Research, Daytona Beach, Fla.). To be eligible, patients (≧18 yrs.) had to meet the revised criteria of the American Rheumatism Association for Rheumatoid Arthritis and had to have received low-dose MTX therapy for at least three months. Other medications included low-dose corticosteroids (<10 mg day) and folic acid supplementation for the prevention of side-effects induced by MTX. Local Institutional Review Board approved the study and patient consent was obtained for each patient. Patients' demographics were collected at the time of enrollment in the study. Blood was drawn in EDTA-containing tubes and shipped overnight to Prometheus Laboratories Inc. (San Diego, Calif.) for analysis.
Red blood cell MTXPG concentrations were measured as described previously using an HPLC-fluorometry procedure with a post-column photo-oxidation technique (Dervieux et al., Clin. Chem., 49:1632-1641 (2003)). Results are expressed in nmol/L as either total MTXPG1-5 levels or total long-chain MTXG3-5 levels (i.e., the sum of MTXP3+MTXPG4+MTXPG5 levels).
The statistical analysis consisted of a multivariate linear or logistic regression, with MTXPG levels (i.e., MTXPG1-5, MTXPG3-5) as dependent variables and predictors (i.e., age, weekly MTX dose, route of administration, and RFC-1 and GGH genotypes) as independent variables. For calculating a pharmacogenetic index, the genotypes were dichotomized as homozygous mutants (RFC-1 80A/A and GGH −401T/T; value of 1) versus wild-type or heterozygous (RFC-1 80G/G or 80G/A and GGH −401C/C or −401C/T; value of 0) as appropriate. Group comparisons were performed with the Kruskall-Wallis ANOVA. The likelihood of having MTXPG levels above group median was derived from the logistic regression model. Odds ratio (OR) and probability (P) are given with a 95% confidence interval (CI). Estimates are given with standard error.

Structure (SMILES): CN(Cc1cnc2nc(N)nc(N)c2n1)c1ccc(C(=O)N[C@@H](CCC(=O)N[C@@H](CCC(=O)N[C@@H](CCC(=O)O)C(=O)O)C(=O)O)C(=O)O)cc1 [MTXPG3]
- Change of RBC level with increased pharmacogenetic index (PI, from −1 to 1): increased

Structure (SMILES): CN(Cc1cnc2nc(N)nc(N)c2n1)c1ccc(C(=O)N[C@@H](CCC(=O)N[C@@H](CCC(=O)N[C@@H](CCC(=O)N[C@@H](CCC(=O)O)C(=O)O)C(=O)O)C(=O)O)C(=O)O)cc1 [MTXPG4]
- Change of RBC level with increased pharmacogenetic index (PI, from −1 to 1): increased

Structure (SMILES): CN(Cc1cnc2nc(N)nc(N)c2n1)c1ccc(C(=O)NC(CCC(=O)NC(CCC(=O)NC(CCC(=O)NC(CCC(=O)NC(CCC(=O)O)C(=O)O)C(=O)O)C(=O)O)C(=O)O)C(=O)O)cc1 (stereo not drawn) [MTXPG5]
- Change of RBC level with increased pharmacogenetic index (PI, from −1 to 1): increased

Structure (SMILES): CN(Cc1cnc2nc(N)nc(N)c2n1)c1ccc(C(=O)NC(CCC(=O)NC(CCC(=O)O)C(=O)O)C(=O)O)cc1 (stereo not drawn) [MTXPG2]
- Change of RBC level with increased pharmacogenetic index (PI, from −1 to 1): no significant differences

Structure (SMILES): CN(Cc1cnc2nc(N)nc(N)c2n1)c1ccc(C(=O)N[C@@H](CCC(=O)O)C(=O)O)cc1 [MTX, methotrexate]
- RBC MTXPG levels after injected MTX compared to oral administration (multivariate linear regression, route p<0.04): higher MTXPG levels
- Change of RBC level with increased pharmacogenetic index (PI, from −1 to 1): no significant differences
